≈ marks a conversion by molar mass, not a printed value. Read-outs that look alike come from different tables or passages of the source.
Experiments:
[1] = system: Staphylococcus epidermidis IFO 12993; experiment: in vitro antibacterial activity, standard agar dilution method; type: cell-based; settings: IFO12993, aerobic, read-out: minimum inhibitory concentration (MIC)
[2] = system: Myoplasma hominis NR 2952; experiment: as above; type: cell-based; settings: read-out: minimum inhibitory concentration (MIC)
[3] = system: Escherichia coli NIHJ JC-2; experiment: as above; type: cell-based; settings: NIHJJC2, aerobic, read-out: minimum inhibitory concentration (MIC)
[4] = system: Proteus vulgaris OX19 ATCC 6898; experiment: as above; type: cell-based; settings: ATCC6898, aerobic, read-out: minimum inhibitory concentration (MIC)
[5] = system: Bacteroides fragilis NR 2584; experiment: as above; type: cell-based; settings: NR2584, anaerobic, read-out: minimum inhibitory concentration (MIC)
Escherichia coli ML4707 = experiment: in vivo therapeutic efficacy, lethal systemic infection in mice; settings: Escherichia coli, 120 h, E. coli ML4707 i.p. infection, ICR mice, mortality 5 days, read-out: 50% effective dose (ED50)
Procedure: (§1) The in vivo antibacterial activities of pyrido[3,2,1-ij]-1,3,4-benzoxadiazine derivatives prepared by Example 5, Example 30, Example 65 and Example 66 as mentioned below were tested against lethal infection of Escherichia coli ML4707, Pseudomonas aeruginosa 4au542 and Streptococcus pneumoniae 6-001. ICR mice weighing about 20 g were infected by intraperitoneal injection of a corresponding bacterial suspension. The test compounds were administered orally or subcutaneously at the time of injection. […] The respective 50% effective dose (ED50, mg/kg) which protects 50% of the animals from death caused by infection, is shown in Table 3.

[6] = system: Streptococcus pneumoniae 6-001; experiment: as above; settings: Streptococcus pneumoniae, 6001, po, 120 h; S. pneumoniae 6-001 i.p. infection, ICR mice, p.o. at time of injection, mortality 5 days; read-out: 50% effective dose (ED50)
Procedure: as §1

[7] = system: Pseudomonas aeruginosa 4au542; experiment: as above; settings: po, 120 h, P. aeruginosa 4au542 i.p. infection, ICR mice, p.o. at time of injection, mortality 5 days, read-out: 50% effective dose (ED50)
Procedure: as §1

[8] = system: Serratia marcescens IFO 12648; experiment: in vitro antibacterial activity, standard agar dilution method; type: cell-based; settings: IFO12648, aerobic, read-out: minimum inhibitory concentration (MIC)
[9] = system: Bacteroides fragilis ATCC 23745; experiment: as above; type: cell-based; settings: ATCC23745, anaerobic, read-out: minimum inhibitory concentration (MIC)
[10] = acute toxicity by oral administration; settings: mouse, in vivo, po
Text: The acute toxicity of these compounds was examined by oral administration in ICR mice.

[11] = system: Bifidobacterium adolescentis ATCC 15703; experiment: in vitro antibacterial activity, standard agar dilution method; type: cell-based; settings: ATCC15703, anaerobic, read-out: minimum inhibitory concentration (MIC)
[12] = system: Clostridium perfringens NR 2612; experiment: microbe, parasite or virus in culture; type: cell-based; settings: NR2612, read-out: minimum inhibitory concentration (MIC)
[13] = system: Bacteroides distasonis NR 2578; experiment: in vitro antibacterial activity, standard agar dilution method; type: cell-based; settings: Parabacteroides distasonis, NR2578, anaerobic, read-out: minimum inhibitory concentration (MIC)
[14] = system: Bacteroides thetaiotaomicron NR 2588; experiment: as above; type: cell-based; settings: NR2588, anaerobic, read-out: minimum inhibitory concentration (MIC)
[15] = system: Peptococcus prevotii ATCC 9321; experiment: as above; type: cell-based; settings: Anaerococcus prevotii, ATCC9321, anaerobic, read-out: minimum inhibitory concentration (MIC)
[16] = system: Pseudomonas stutzeri IFO 12695; experiment: as above; type: cell-based; settings: Stutzerimonas stutzeri, IFO12695, aerobic, read-out: minimum inhibitory concentration (MIC)
[17] = system: Staphylococcus aureus NR 2855; experiment: as above; type: cell-based
[18] = system: Bordetella bronchiseptica ATCC 4617; experiment: as above; type: cell-based; settings: ATCC4617, aerobic, read-out: minimum inhibitory concentration (MIC)
[19] = system: Alcaligenes faecalis IFO 13111; experiment: as above; type: cell-based; settings: IFO13111, aerobic, read-out: minimum inhibitory concentration (MIC)
[20] = system: Bacillus subtilis PCI 219; experiment: as above; type: cell-based; settings: PCI219, aerobic, read-out: minimum inhibitory concentration (MIC)
[21] = system: Klebsiella pneumoniae FDA PCI 602; experiment: as above; type: cell-based; settings: FDAPCI602, aerobic, read-out: minimum inhibitory concentration (MIC)
[22] = system: Bacteroides fragilis NR 2579; experiment: as above; type: cell-based; settings: NR2579, anaerobic, read-out: minimum inhibitory concentration (MIC)
[23] = system: Bacteroides fragilis NR 2583; experiment: as above; type: cell-based; settings: NR2583, anaerobic, read-out: minimum inhibitory concentration (MIC)
[24] = system: Citrobacter freundii IFO 12681; experiment: as above; type: cell-based; settings: IFO12681, aerobic, read-out: minimum inhibitory concentration (MIC)
[25] = system: Bacteroides fragilis NR 2582; experiment: as above; type: cell-based; settings: NR2582, anaerobic, read-out: minimum inhibitory concentration (MIC)
[26] = system: Enterococcus faecalis NR 2943; experiment: as above; type: cell-based; settings: NR2943, aerobic, read-out: minimum inhibitory concentration (MIC)
[27] = system: Propionibacterium acnes ATCC 11828; experiment: as above; type: cell-based; settings: Cutibacterium acnes, ATCC11828, anaerobic, read-out: minimum inhibitory concentration (MIC)
[28] = system: Staphylococcus aureus FDA 209P JC-1; experiment: as above; type: cell-based; settings: FDA209P, read-out: minimum inhibitory concentration (MIC)
[29] = ML4707, po, p.o. at time of injection
[30] = ML4707, sc, s.c. at time of injection

SMILES	MIC [1]	MIC [2]	MIC [3]	MIC [4]	MIC [5]	ED50 (Escherichia coli ML4707; [29])	ED50 (Escherichia coli ML4707; [30])	ED50 [6]	ED50 [7]	MIC [8]	MIC [9]	LD50 [10]	MIC [11]	MIC [12]	MIC [13]	MIC [14]	MIC [15]	MIC [16]	MIC [18]	MIC [19]	also measured
CN1CCN(c2c(F)cc3c(=O)c(C(=O)O)cn4c3c2OCN4C)CC1 [Example 5, 9-fluoro-3-methyl-10-(4-methyl-1-piperazinyl)-7-oxo-2,3-dihydro-7H-pyrido[3,2,1-ij]-1,3,4-benzoxadiazine-6-carboxylic acid]	0.39 µg/mL (≈ 1.08 µM)	0.1 µg/mL (≈ 0.276 µM)	0.025 µg/mL (≈ 0.069 µM)	0.013 µg/mL (≈ 0.0359 µM)	0.78 µg/mL (≈ 2.15 µM)	0.11 mg/kg	0.06 mg/kg	10.3 mg/kg	13.4 mg/kg	0.1 µg/mL (≈ 0.276 µM)	0.78 µg/mL (≈ 2.15 µM)	> 2000 mg/kg	0.39 µg/mL (≈ 1.08 µM)	0.39 µg/mL (≈ 1.08 µM)	0.78 µg/mL (≈ 2.15 µM)	1.56 µg/mL (≈ 4.31 µM)	1.56 µg/mL (≈ 4.31 µM)	0.025 µg/mL (≈ 0.069 µM)	0.2 µg/mL (≈ 0.552 µM)	0.39 µg/mL (≈ 1.08 µM)	MIC ([17]; NR2855, Staphylococcus aureus NR 2855, aerobic, agar dilution, read-out: minimum inhibitory concentration (MIC)): 0.2 µg/mL (≈ 0.552 µM); MIC [20]: 0.05 µg/mL (≈ 0.138 µM); MIC [21]: 0.1 µg/mL (≈ 0.276 µM); MIC [22]: 3.13 µg/mL (≈ 8.64 µM); MIC [23]: 0.39 µg/mL (≈ 1.08 µM); MIC [24]: 0.013 µg/mL (≈ 0.0359 µM); MIC [25]: 0.78 µg/mL (≈ 2.15 µM); MIC [26]: 3.13 µg/mL (≈ 8.64 µM); MIC [27]: 0.78 µg/mL (≈ 2.15 µM); MIC ([28]; Staphylococcus aureus): 0.39 µg/mL (≈ 1.08 µM)
CN1COc2c(N3CCC(N)C3)c(F)cc3c(=O)c(C(=O)O)cn1c23 (stereo not drawn) [Example 30, 10-(3-amino-1-pyrrolidinyl)-9-fluoro-3-methyl-7-oxo-2,3-dihydro-7H-pyrido[3,2,1-ij]-1,3,4-benzoxadiazine-6-carboxylic acid]	0.2 µg/mL (≈ 0.574 µM)	0.1 µg/mL (≈ 0.287 µM)	0.013 µg/mL (≈ 0.0373 µM)	0.0065 µg/mL (≈ 0.0187 µM)	0.78 µg/mL (≈ 2.24 µM)	0.62 mg/kg	0.1 mg/kg	65.9 mg/kg	57 mg/kg	0.05 µg/mL (≈ 0.144 µM)	0.2 µg/mL (≈ 0.574 µM)	> 2000 mg/kg	0.1 µg/mL (≈ 0.287 µM)	0.1 µg/mL (≈ 0.287 µM)	0.78 µg/mL (≈ 2.24 µM)	0.78 µg/mL (≈ 2.24 µM)	0.39 µg/mL (≈ 1.12 µM)	0.0033 µg/mL (≈ 0.00947 µM)	1.56 µg/mL (≈ 4.48 µM)	1.56 µg/mL (≈ 4.48 µM)	MIC ([17]; Staphylococcus aureus, NR2855, read-out: minimum inhibitory concentration (MIC)): 0.39 µg/mL (≈ 1.12 µM); MIC [20]: 0.025 µg/mL (≈ 0.0718 µM); MIC [21]: 0.1 µg/mL (≈ 0.287 µM); MIC [22]: 1.56 µg/mL (≈ 4.48 µM); MIC [23]: 0.1 µg/mL (≈ 0.287 µM); MIC [24]: 0.013 µg/mL (≈ 0.0373 µM); MIC [25]: 0.39 µg/mL (≈ 1.12 µM); MIC [26]: 3.13 µg/mL (≈ 8.99 µM); MIC [27]: 0.78 µg/mL (≈ 2.24 µM); MIC ([28]; Staphylococcus aureus FDA 209P JC-1, aerobic, agar dilution): 0.05 µg/mL (≈ 0.144 µM)
